ChEMBL document CHEMBL1125851, “Trans-esterification reactions yield novel masked phosphate derivatives of the anti-cancer agent araC” (Bioorg Med Chem Lett, 1991)

Tested on: Nucleic Acid
Test: The compound was tested for its ability to inhibit the incorporation of tritiated thymidine into mammalian epithelial cells (DNA) at 30 uM dose
Format: cell-based
Conditions: Epithelial cell

SMILES | inhibition
CCCCNP(=O)(OC[C@H]1OC(n2ccc(N)nc2=O)[C@@H](O)[C@@H]1O)OCC(Cl)(Cl)Cl (stereo partly drawn) | 48%
COP(=O)(OC[C@H]1OC(n2ccc(N)nc2=O)[C@@H](O)[C@@H]1O)OCC(Cl)(Cl)Cl (stereo partly drawn) | 22%
CCCNP(=O)(OC[C@H]1OC(n2ccc(N)nc2=O)[C@@H](O)[C@@H]1O)OCC(Cl)(Cl)Cl (stereo partly drawn) | 45%
Nc1ccn(C2O[C@H](COP(=O)(OCC(Cl)(Cl)Cl)OCC(Cl)(Cl)Cl)[C@@H](O)[C@@H]2O)c(=O)n1 (stereo partly drawn) | 91%
CCOP(=O)(OC[C@H]1OC(n2ccc(N)nc2=O)[C@@H](O)[C@@H]1O)OCC(Cl)(Cl)Cl (single isomer, unassigned; form 1) | 31%
Nc1ccn([C@@H]2O[C@H](CO)[C@@H](O)[C@@H]2O)c(=O)n1 | 83%
CCOP(=O)(OC[C@H]1OC(n2ccc(N)nc2=O)[C@@H](O)[C@@H]1O)OCC(Cl)(Cl)Cl (single isomer, unassigned; form 2) | 30%
CCCOP(=O)(OC[C@H]1OC(n2ccc(N)nc2=O)[C@@H](O)[C@@H]1O)OCC(Cl)(Cl)Cl (stereo partly drawn) | 40%
